# Like-named read-outs stand apart in the source and are kept apart here.
# What was measured:
# [1] = cited from earlier work; for T1/2: biological half-life of metabolite
# anesthesia and analgesia = details: cited from earlier work
# neuropathic pain = details: cited from earlier work
# [2] = Dose linearity test for oral transmucosal S-ketamine formulations
structure (smiles),measurement,setting,value
NC1(c2ccccc2Cl)CCC=CC1=O (stereo not drawn) [Dehydronorketamine],T1/2,[1],6.91 (1.71) h
NC1(c2ccccc2Cl)CCCCC1=O (stereo not drawn) [Norketamine],peak plasma concentrations of norketamine,[1]; after oral administration of ketamine,200 ng/mL
same,T1/2,[1],5.32 (1.70) h
CN[C@]1(c2ccccc2Cl)CCCCC1=O [S-Ketamine],therapeutic index relative to R-Ketamine,anesthesia and analgesia; in vivo,2.5 times
same,time to maximal pain reduction,neuropathic pain; after nasal application,60 min
same,plasma concentrations of (S)-norketamine,neuropathic pain; between 30 and 180 min after intranasal administration,> 10 ng/mL
same,time to (S)-ketamine plasma-peak,neuropathic pain; intranasal,≤ 15 min
same,time to decline of plasma level below 10 ng/ml,neuropathic pain; intranasal,≤ 60 min
same,duration of reduction of ongoing neuropathic pain,neuropathic pain; low-dose intranasal administration,2 to 3 h
same,range of dose linearity,[2],10 to 300 mg
N[C@]1(c2ccccc2Cl)CCCCC1=O [S-norketamine],analgesic and anaesthetic effect relative to S-ketamine,anesthesia and analgesia; in vivo,five times weaker
"CNC1(c2ccccc2Cl)CCCCC1=O (racemic) [Ketamine, dl-2-(o-chloro-phenyl)-2(methylamino)cyclohexanone]",duration of anesthesia,anesthesia and analgesia; IM administration,12 to 25 min
same,time to anesthesia,anesthesia and analgesia; IM route,3 to 4 min
same,time to anesthesia,anesthesia and analgesia; administered intravenously,≤ 0.5 min
same,time to sensation of dissociation,anesthesia and analgesia; administered intravenously,15 s
same,ketamine concentration at effective analgesia,anesthesia and analgesia; following oral dose,40 ng/mL
same,Time to onset,"anesthesia and analgesia; iv bolus, dosage 2 mg/kg",30 to 60 s
same,duration of effect,"anesthesia and analgesia; iv bolus, dosage 2 mg/kg",10 to 15 min
same,plasma levels at which analgesic effects were observed,"anesthesia and analgesia; sum of S- and R-isomer, intramuscular and intravenous administration",100 to 200 ng/mL
same,T½ beta,[1]; biological half-life,4.98 (1.56) h
same,Clearance,[1]; in vivo,12 to 17 mL/min/kg
same,Metabolites excreted fecally,[1]; in vivo,5%
same,Metabolites excreted renally,[1]; in vivo,90%
same,Urinary excretion of unchanged drug,[1]; in vivo,3-4%
same,administered dose excreted unchanged in urine,[1]; in vivo,4%
same,alpha phase half-life,[1]; in vivo,0.167 to 0.25 h
same,apparent volume of distribution,[1]; in vivo,3.3 L/kg
same,beta phase half-life,[1]; in vivo,2 to 3 h
same,clearance rate,[1]; in vivo,1.3 L/min
same,distribution half-life,[1]; in vivo,7 to 11 min
same,duration of alpha phase of distribution,[1]; in vivo,about 45 minutes
same,elimination half-life,[1]; in vivo,2 to 3 h
same,elimination halftime,[1]; in vivo,about 2.5 hours
same,Bioavailability,[1]; intramuscular dose,93%
same,time of peak plasma concentrations,[1]; intramuscular injection,5 to 10 min
same,Bioavailability,[1]; intranasal dose,25-50%
same,time of peak plasma concentrations,[1]; intravenous administration,≤ 1 min
same,time of peak plasma concentrations,[1]; oral administration,30 min
same,Bioavailability,[1]; oral dose,20±7%
same,Bioavailability,"[1]; orally administered, extensive first-pass metabolism",approximately 16%
same,time of peak absorption,"[1]; rectal, in children",45 min
same,oral bioavailability (AUC) relative to intravenous injection,[1]; single oral dose of 0.5 mg/kg,about 20%

# Reference: patent US20140079740A1 (priority 2012, published 2014)
